Where two headings read alike, the source gives them in different places.
How the values were obtained:
[1] = target: T1, Human FXRα Ligand Binding Domain (Homo sapiens, UniProt Q96RI1); test: FXR Cofactor Binding Assay (time resolved fluorescence, SRC-1 peptide recruitment); format: biochemical; details: read-out: Activity (pEC50) (converted)
T1 construct: polyhistidine (pRSET-A vector leader) (N); made in house; host or cells: E. coli BL21 (DE3), pRSET-A vector
T1 sequence (Q96RI1 237-472 isoform Q96RI1-2): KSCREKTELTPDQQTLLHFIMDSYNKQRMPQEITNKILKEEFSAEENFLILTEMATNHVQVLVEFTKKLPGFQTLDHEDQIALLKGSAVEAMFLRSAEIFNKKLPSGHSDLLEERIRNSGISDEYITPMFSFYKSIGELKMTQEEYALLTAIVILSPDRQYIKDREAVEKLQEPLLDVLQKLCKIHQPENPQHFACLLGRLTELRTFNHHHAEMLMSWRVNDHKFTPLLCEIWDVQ
From the text: Determination of a ligand mediated cofactor peptide interaction to quantify ligand binding to the nuclear receptor Farnesoid X Receptor (FXR). The method measures the ability of putative ligands to modulate the interaction between the purified bacterial expressed FXRα ligand binding domain (LBD) and a synthetic biotinylated peptide based on residues 676-700 of steroid receptor coactivator-1 (SRC-1) (LXXLL-containing domain-2 where L is the amino acid leucine and X indicates any other amino acid (LCD2), 676-700). The sequence of the SRC-1 peptide used is as published in Iannone, M. A., et al., 2001 Cytometry 44:326-337 where the N-terminus was biotinylated (B) and the C-terminus was amidated. Detection of the associated complex was measured by time resolved fluorescence (TRF). The purified LBD of FXR was labeled with biotin then mixed with stoichiometric amounts of allophycocyanin (APC) labeled streptavidin (Molecular Probes). The biotinylated peptide was then mixed with a ½ stoichiometric amount of europium labeled streptavidin (Wallac Inc). Each was then blocked with a 5 fold excess of biotin and allowed to equilibrate for 15 min. Equimolar amounts of receptor and peptide were mixed together and were allowed to equilibrate for at least 30 min prior to the addition to either a variable or constant concentrations of the sample for which the affinity is to be determined. After equilibration, the time-resolved fluorescent signal was quantitated using a fluorescent plate reader. The affinity of the test compound was estimated from a plot of fluorescence versus concentration of test compound added.
A basal level of FXR: peptide formation is observed in the absence of added ligand. Ligands that promote the complex formation induce a concentration-dependent increase in time-resolved fluorescent signal. Compounds which bind equally well to both monomeric FXR and to the FXR: peptide complex would be expected to give no change in signal, whereas ligands which bind preferentially to the monomeric receptor would be expected to induce a concentration-dependent decrease in the observed signal.
Advance Preparation: Human Farnesoid X Receptor α Ligand Binding Domain Human FXRα Ligand Binding Domain (FXRα LBD) was expressed in E. coli strain BL21 (DE3) as an amino-terminal polyhistidine tagged fusion protein. Expression was under the control of an isopropyl-β-D-thiogalactopyranoside (IPTG) inducible T7 promoter. DNA encoding this recombinant protein is subcloned into the pRSET-A expression vector (Invitrogen). The coding sequence of Human FXRα LBD was derived from Genbank accession number U 68233 (amino acids 237 to 472).
Ten-liter fermentation batches were grown in Rich PO4 media with 0.1 mg/mL Ampicillin at 25° C. for 12 hours, cooled to 9° C. and held at that temperature for 36 hours to a density of OD600=14. At this cell density, 0.25 mM IPTG is added and induction proceeded for 24 hours at 9° C., to a final OD600=16. Cells are harvested by centrifugation (20 minutes, 3500× gravity, 4° C.), and concentrated cell slurries were stored in phosphate buffered saline (PBS) at […].
Routinely, 30-40 g cell paste (equivalent to 2-3 liters of the fermentation batch) was resuspended in 200-250 mL Tris buffered saline (TBS), pH 7.2 (25 mM Tris-hydroxymethylamino methane (Tris), 150 mM sodium chloride). Cells were lysed by passing 3 times through a French Press and cell debris was removed by centrifugation (30 minutes, 20,000× gravity, 4° C.). The cleared supernatant was filtered through course pre-filters, and TBS, pH 7.2, 500 mM imidazole was added to obtain a final imidazole concentration of 50 mM. This lysate was loaded onto a column (6×8 cm) packed with Sepharose [Ni^++ charged] Chelation resin (Pharmacia) and pre-equilibrated with TBS pH 7.2/50 mM imidazole. After washing to baseline absorbance with equilibration buffer, the column was washed with one column volume of TBS pH 7.2 containing 90 mM imidazole. […]

[2] = system: rodent models of hepatic fibrosis; details: multiple rodent models; cited from earlier work
cultured HSCs = details: cited from earlier work

Question: With `CC(C)c1onc(-c2c(Cl)cccc2Cl)c1COc1ccc(-c2ccc3[nH]c(C(=O)O)cc3c2)cc1` [Example 1, 5-[4-({[3-(2,6-Dichlorophenyl)-5-(1-methylethyl)-4-isoxazolyl]methyl}oxy)phenyl]-1H-indole-2-carboxylic Acid] as the molecule, how does the EC50 ([1]; class symbols) read?
Answer: < 0.1 µM

Question: With `CC(C)c1onc(-c2c(Cl)cccc2Cl)c1COc1ccc(-c2ccc3c(c2)C(C(=O)O)CC3)cc1` (centres unmarked) [Example 2, 6-[4-({[3-(2,6-Dichlorophenyl)-5-(1-methylethyl)-4-isoxazolyl]methyl}oxy)phenyl]-2,3-dihydro-1H-indene-1-carboxylic Acid] as the molecule, how does the EC50 ([1]; class symbols) read?
Answer: 0.102 to 1 µM

Question: For `CC(C)c1onc(-c2c(Cl)cccc2Cl)c1COc1ccc(-c2ccc3c(C(=O)O)c[nH]c3c2)cc1` [Example 3, 6-[4-({[3-(2,6-Dichlorophenyl)-5-(1-methylethyl)-4-isoxazolyl]methyl}oxy)phenyl]-1H-indole-3-carboxylic Acid], which EC50 ([1]; class symbols) is on record?
Answer: < 0.1 µM

Question: For `CC(C)c1onc(-c2c(Cl)cccc2Cl)c1COc1ccc(-c2ccc3oc(C(=O)O)cc3c2)cc1` [Example 4, 5-[4-({[3-(2,6-Dichlorophenyl)-5-(1-methylethyl)-4-isoxazolyl]methyl}oxy)phenyl]-1-benzofuran-2-carboxylic Acid], which EC50 ([1]; class symbols) is on record?
Answer: < 0.1 µM

Question: Which EC50 ([1]; class symbols) does the source give for `CC(C)c1onc(-c2c(Cl)cccc2Cl)c1COc1ccc(-c2ccc3cc(C(=O)O)[nH]c3c2)cc1` [Example 5, 6-[4-({[3-(2,6-Dichlorophenyl)-5-(1-methylethyl)-4-isoxazolyl]methyl}oxy)phenyl]-1H-indole-2-carboxylic Acid] here?
Answer: 0.102 to 1 µM

Question: For `CC(C)c1onc(-c2c(Cl)cccc2Cl)c1COc1ccc(-c2ccc3c(c2)CC(C(=O)O)C3)cc1` (centres unmarked) [Example 6, 5-[4-({[3-(2,6-Dichlorophenyl)-5-(1-methylethyl)-4-isoxazolyl]methyl}oxy)phenyl]-2,3-dihydro-1H-indene-2-carboxylic Acid], which EC50 ([1]; class symbols) is on record?
Answer: 0.102 to 1 µM

Question: With `CC[C@H]1[C@@H](O)[C@@H]2[C@H](CC[C@]3(C)[C@@H]([C@H](C)CCC(=O)O)CC[C@@H]23)[C@@]2(C)CC[C@@H](O)C[C@@H]12` [Example 6EtCDCA, 6-ethyl-chenodeoxycholic acid] as the molecule, how does the hepatic fibrosis [2] read?
Answer: prevent development and promote resolution

Question: What about the “expression of fibrotic markers such as α-smooth muscle actin and α1(I) collagen” value (cultured HSCs) of the same molecule?
Answer: decreased

Question: For `CC(C)c1onc(-c2c(Cl)cccc2Cl)c1COc1ccc(-c2ccc3c(c2)CCC3(O)C(=O)O)cc1` (centres unmarked) [Example 7, 5-[4-({[3-(2,6-Dichlorophenyl)-5-(1-methylethyl)-4-isoxazolyl]methyl}oxy)phenyl]-1-hydroxy-2,3-dihydro-1H-indene-1-carboxylic Acid], which EC50 ([1]; class symbols) is on record?
Answer: 0.102 to 1 µM

Question: With `CC(C)c1onc(-c2c(Cl)cccc2Cl)c1COc1ccc(-c2ccc3c(C(=O)O)n[nH]c3c2)cc1` [Example 8, 6-[4-({[3-(2,6-Dichlorophenyl)-5-(1-methylethyl)-4-isoxazolyl]methyl}oxy)phenyl]-1H-indazole-3-carboxylic Acid] as the molecule, how does the EC50 ([1]; class symbols) read?
Answer: 1.02 to 10 µM

Question: With `CC(C)c1onc(-c2c(Cl)cccc2Cl)c1COc1ccc(-c2csc3ccc(C(=O)O)cc23)cc1` [Example 9, 3-[4-({[3-(2,6-Dichlorophenyl)-5-(1-methylethyl)-4-isoxazolyl]methyl}oxy)phenyl]-1-benzothiophene-5-carboxylic Acid] as the molecule, how does the EC50 ([1]; class symbols) read?
Answer: 1.02 to 10 µM

Question: Which EC50 ([1]; class symbols) does the source give for `CC(C)c1onc(-c2c(Cl)cccc2Cl)c1COc1ccc(-c2ccc3sc(C(=O)O)cc3n2)cc1` [Example 10, 5-[4-({[3-(2,6-Dichlorophenyl)-5-(1-methylethyl)-4-isoxazolyl]methyl}oxy)phenyl]thieno[3,2-b]pyridine-2-carboxylic Acid] here?
Answer: 0.102 to 1 µM

Question: For `CC(C)c1onc(-c2c(Cl)cccc2Cl)c1COc1ccc(-c2ccc3c(C(=O)O)csc3c2)cc1` [Example 11, 6-[4-({[3-(2,6-Dichlorophenyl)-5-(1-methylethyl)-4-isoxazolyl]methyl}oxy)phenyl]-1-benzothiophene-3-carboxylic Acid], which EC50 ([1]; class symbols) is on record?
Answer: < 0.1 µM

Question: Which EC50 ([1]; class symbols) does the source give for `CC(C)c1onc(-c2c(Cl)cccc2Cl)c1COc1ccc(-c2ccc3sc(C(=O)O)cc3c2)cc1` [Example 12, 5-[4-({[3-(2,6-Dichlorophenyl)-5-(1-methylethyl)-4-isoxazolyl]methyl}oxy)phenyl]-1-benzothiophene-2-carboxylic Acid] here?
Answer: 0.102 to 1 µM

Question: With `CC(C)c1onc(-c2c(Cl)cccc2Cl)c1COc1ccc(-c2ccc3c(C(=O)O)c[nH]c3c2)cn1` [Example 13, 6-[6-({[3-(2,6-Dichlorophenyl)-5-(1-methylethyl)-4-isoxazolyl]methyl}oxy)-3-pyridinyl]-1H-indole-3-carboxylic Acid] as the molecule, how does the EC50 ([1]; class symbols) read?
Answer: 0.102 to 1 µM

Question: With `CC(C)c1onc(-c2c(Cl)cccc2Cl)c1COc1ccc(-c2ccc3oc(C(=O)O)cc(=O)c3c2)cc1` [Example 14, 6-[4-({[3-(2,6-Dichlorophenyl)-5-(1-methylethyl)-4-isoxazolyl]methyl}oxy)phenyl]-4-oxo-4H-chromene-2-carboxylic Acid] as the molecule, how does the EC50 ([1]; class symbols) read?
Answer: < 0.1 µM

Question: Which EC50 ([1]; class symbols) does the source give for `CC(C)c1onc(-c2c(Cl)cccc2Cl)c1COc1ccc(-c2ccc3c(C(=O)O)cc(=O)oc3c2)cc1` [Example 15, 7-[4-({[3-(2,6-Dichlorophenyl)-5-(1-methylethyl)-4-isoxazolyl]methyl}oxy)phenyl]-2-oxo-2H-chromene-4-carboxylic Acid] here?
Answer: 0.102 to 1 µM

Question: For `CC(C)c1onc(-c2c(Cl)cccc2Cl)c1COc1ccc(-c2ccc3c(=O)cc(C(=O)O)oc3c2)cc1` [Example 16, 7-[4-({[3-(2,6-Dichlorophenyl)-5-(1-methylethyl)-4-isoxazolyl]methyl}oxy)phenyl]-4-oxo-4H-chromene-2-carboxylic Acid], which EC50 ([1]; class symbols) is on record?
Answer: 0.102 to 1 µM

Question: For `CC(C)c1onc(-c2c(Cl)cccc2Cl)c1COc1ccc(-c2ccc3c(c2)CCCC3C(=O)O)cc1` (centres unmarked) [Example 17, 6-[4-({[3-(2,6-Dichlorophenyl)-5-(1-methylethyl)-4-isoxazolyl]methyl}oxy)phenyl]-1,2,3,4-tetrahydro-1-naphthalenecarboxylic Acid], which EC50 ([1]; class symbols) is on record?
Answer: 0.102 to 1 µM

Question: For `CC(C)c1onc(-c2c(Cl)cccc2Cl)c1COc1ccc(Nc2cccc3ccc(C(=O)O)cc23)cc1` [Example 18, 8-{[4-({[3-(2,6-Dichlorophenyl)-5-(1-methylethyl)-4-isoxazolyl]methyl}oxy)phenyl]amino}-2-naphthalenecarboxylic Acid], which EC50 ([1]; class symbols) is on record?
Answer: 0.102 to 1 µM

Question: With `CC(C)c1onc(-c2c(Cl)cccc2Cl)c1COc1ccc(Sc2cccc3sc(C(=O)O)cc23)cc1` [Example 19, 4-{[4-({[3-(2,6-Dichlorophenyl)-5-(1-methylethyl)-4-isoxazolyl]methyl}oxy)phenyl]thio}-1-benzothiophene-2-carboxylic Acid] as the molecule, how does the EC50 ([1]; class symbols) read?
Answer: 0.102 to 1 µM

Question: With `CCOC(=O)c1noc2cc(-c3ccc(OCc4c(-c5c(Cl)cccc5Cl)noc4C(C)C)cc3)ccc12` [Example 20, Ethyl 6-[4-({[3-(2,6-dichlorophenyl)-5-(1-methylethyl)-4-isoxazolyl]methyl}oxy)phenyl]-1,2-benzisoxazole-3-carboxylate] as the molecule, how does the EC50 ([1]; given as numeric bound) read?
Answer: > 20 µM

Question: Which EC50 ([1]; class symbols) does the source give for `CC(C)c1onc(-c2c(Cl)cccc2Cl)c1COc1ccc(-c2nc3cccc(C(=O)O)c3[nH]2)cc1` [Example 21, 2-[4-({[3-(2,6-Dichlorophenyl)-5-(1-methylethyl)-4-isoxazolyl]methyl}oxy)phenyl]-1H-benzimidazole-4-carboxylic Acid] here?
Answer: 1.02 to 10 µM
